These compounds were tested against human activated kallikrein enzyme (Homo sapiens, UniProt P03952) (assay: Inhibition of human activated plasma kallikrein, fluorogenic PFR-AMC substrate, 500 pM enzyme format). Conditions: 500 pM activated kallikrein; 300 μM PFR-AMC; 30 min preincubation; 10 min room temperature; pH 7.5; read-out: Primary Dose Response Assay: Average EC50.
Type: biochemical
How it was run: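 500 pM activated kallikrein preincubated 30 min at room temperature with inhibitors in pH 7.5 Tris/EDTA/NaCl buffer with PEG-400 and Triton X-100. Reaction started with 300 μM PFR-AMC, run 10 min at room temperature; AMC fluorescence read at ex 380/em 460 nm.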

human activated kallikrein enzyme, sequence (P03952 391-638 limits assumed): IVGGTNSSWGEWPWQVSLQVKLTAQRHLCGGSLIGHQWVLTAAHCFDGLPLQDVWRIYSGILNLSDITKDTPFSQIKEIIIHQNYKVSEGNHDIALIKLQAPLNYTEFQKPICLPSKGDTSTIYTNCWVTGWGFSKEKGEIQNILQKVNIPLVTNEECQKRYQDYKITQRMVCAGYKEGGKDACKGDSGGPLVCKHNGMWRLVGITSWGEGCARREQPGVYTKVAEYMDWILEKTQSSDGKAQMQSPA
human activated kallikrein enzyme, sequence (P03952 20-390 partner limits assumed): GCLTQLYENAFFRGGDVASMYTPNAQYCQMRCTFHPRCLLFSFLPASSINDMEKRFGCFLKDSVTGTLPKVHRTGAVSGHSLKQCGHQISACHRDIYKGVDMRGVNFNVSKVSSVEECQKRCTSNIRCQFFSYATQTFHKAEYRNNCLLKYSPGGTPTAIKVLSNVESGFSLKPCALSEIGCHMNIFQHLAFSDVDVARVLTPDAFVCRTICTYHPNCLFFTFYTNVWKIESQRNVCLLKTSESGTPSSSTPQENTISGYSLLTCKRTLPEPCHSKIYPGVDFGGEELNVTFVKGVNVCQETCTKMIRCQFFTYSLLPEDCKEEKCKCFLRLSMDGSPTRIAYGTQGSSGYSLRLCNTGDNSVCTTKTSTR

| EC50 | SMILES |
| --- | --- |
| < 1 nM | Cc1cc2c(N)nccc2c(C)c1CNC(=O)c1cn(Cc2ccc(Cn3cccn3)cc2)nc1C(F)(F)F [Example 185, 1-(4-((1H-pyrazol-1-yl)methyl)benzyl)-N-((1-amino-5,7-dimethylisoquinolin-6-y1)methyl)-3-(trifluoromethyl)-1H-pyrazole-4-carboxamide] |
| < 1 nM | Cc1cc2c(N)nccc2c(C)c1CNc1cc(OCc2cn3cc(C4CC4)ccc3n2)nc(C(=O)O)n1 [Example 487, 4-(((1-amino-5,7-dimethylisoquinolin-6-yl)methyl)amino)-6-((6-cyclopropylimidazo[1,2-a]pyridin-2-yl)methoxy)pyrimidine-2-carboxylic acid] |
| 1 to 10 nM | Cc1cc2c(N)nccc2c(C)c1CNC(=O)c1cnn(Cc2ccc3ccc(Cl)cc3n2)c1 [Example 107, N-((1-amino-5,7-dimethylisoquinolin-6-yl)methyl)-1-((7-chloroquinolin-2-yl)methyl)-1H-pyrazole-4-carboxamide] |
| > 1000 nM | Cc1cc2c(N)nccc2c(C)c1CNC(=O)c1cc(CN)n(Cc2ccccc2)n1 [Example 203, N-((1-amino-5,7-dimethylisoquinolin-6-y1)methyl)-5-(aminomethyl)-1-benzyl-1H-pyrazole-3-carboxamide] |
| > 1000 nM | Cc1cc2c(N)nccc2c(C)c1CNc1cc(OCc2cn3cc(C4CC4)ccc3n2)cnc1C(=O)O [Example 495, 3-(((1-amino-5,7-dimethylisoquinolin-6-yl)methyl)amino)-5-((6-cyclopropylimidazo[1,2-a]pyridin-2-yl)methoxy)picolinic acid] |
| < 1 nM | Cc1cc2c(N)nccc2c(C)c1CNc1cc(NCc2ccc3c(-n4cccn4)cccc3c2)ncn1 [Example 246, N4-((5-(1H-pyrazol-1-yl)naphthalen-2-yl)methyl)-N6-((1-amino-5,7-dimethylisoquinolin-6-yl)methyl)pyrimidine-4,6-diamine] |
| < 1 nM | Cc1cc2c(N)nccc2c(C)c1CNc1cc(NCc2ccc(CC(=O)N3CC4CC4C3)cc2)ncn1 (stereo not shown) [Example 378, 2-(4-(((6-(((1-amino-5,7-dimethylisoquinolin-6-yl)methyl)amino)pyrimidin-4-yl)amino)methyl)phenyl)-1-(3-azabicyclo[3.1.0]hexan-3-yl)ethan-1-one] |
| > 1000 nM | Cc1cc2c(N)nccc2c(C)c1CNc1cc(=O)n(Cc2cn3c(=O)n(C4CC4)ccc3n2)cn1 [Example 505, 2-((4-(((1-amino-5,7-dimethylisoquinolin-6-yl)methyl)amino)-6-oxopyrimidin-1(6H)-yl)methyl)-6-cyclopropylimidazo[1,2-c]pyrimidin-5(6H)-one] |
| < 1 nM | Cc1cc2c(N)nccc2c(C)c1CNc1cc(NCc2ccc3ncc(C(F)(F)F)cc3c2)ncn1 [Example 312, N^4-((1-amino-5,7-dimethylisoquinolin-6-yl)methyl)-N^6-((3-(trifluoromethyl)quinolin-6-yl)methyl)pyrimidine-4,6-diamine] |
| 1 to 10 nM | CCOC(=O)Nc1nccc2c(C)c(CNC(=O)c3cnn(Cc4cn5cc(C)ccc5n4)c3)c(C)cc12 [Example 9, ethyl (5,7-dimethyl-6-((1-((6-methylimidazo[1,2-a]pyridin-2-yl)methyl)-1H-pyrazole-4-carboxamido)methyl)isoquinolin-1-yl)carbamate] |
| 10 to 100 nM | Cc1ccc(Cn2cc(C(=O)NCc3c(C)cc4c(N)nccc4c3C)cn2)cc1 [Example 35, N-((1-amino-5,7-dimethylisoquinolin-6-yl)methyl)-1-(4-methylbenzyl)-1H-pyrazole-4-carboxamide] |
| 1 to 10 nM | Cc1cc2c(N)nccc2c(C)c1CNC(=O)c1cnn(Cc2ccc3c(c2)nnn3C)c1 [Example 58, N-((1-amino-5,7-dimethylisoquinolin-6-yl)methyl)-1-((1-methyl-1H-benzo[d][1,2,3]triazol-5-yl)methyl)-1H-pyrazole-4-carboxamide] |
| 10 to 100 nM | Cc1cc2c(N)nccc2c(C)c1CNc1cnnc(OCc2ccc(Cn3cccn3)cc2)c1 [Example 530, 6-(((6-((4-((1H-pyrazol-1-yl)methyl)benzyl)oxy)pyridazin-4-yl)amino)methyl)-5,7-dimethylisoquinolin-1-amine] |
| 1 to 10 nM | Cc1cc2c(N)nccc2c(C)c1CNC(=O)c1cn(C(C)c2ccc3ncc(Cl)cc3c2)nn1 (stereo not shown) [Example 200, N-((1-amino-5,7-dimethylisoquinolin-6-yl)methyl)-1-(1-(3-chloroquinolin-6-yl)ethyl)-1H-1,2,3-triazole-4-carboxamide] |
| 10 to 100 nM | Cc1cc2c(N)nccc2c(C)c1CNc1cc(OCc2ccc3ncccc3c2)ncn1 [Example 374, 5,7-dimethyl-6-(((6-(quinolin-6-ylmethoxy)pyrimidin-4-yl)amino)methyl)isoquinolin-1-amine] |
| < 1 nM | Cc1cc2c(N)nccc2c(C)c1CNc1cc(NCc2ccc(OCC(=O)N3CCCC3)cc2)ncn1 [Example 345, 2-(4-(((6-(((1-amino-5,7-dimethylisoquinolin-6-yl)methyl)amino)pyrimidin-4-yl)amino)methyl)phenoxy)-1-(pyrrolidin-1-yl)ethan-1-one] |

| EC50 | SMILES |
| --- | --- |
| < 1 nM | Cc1cc2c(N)nccc2c(C)c1CNc1cc(OCc2cn3cc(C4CC4)ccc3n2)nc(CCC(=O)O)n1 [Example 293, 3-(4-(((1-amino-5,7-dimethylisoquinolin-6-yl)methyl)amino)-6-((6-cyclopropylimidazo[1,2-a]pyridin-2-yl)methoxy)pyrimidin-2-yl)propanoic acid] |
| < 1 nM | Cc1cc2c(N)nccc2c(C)c1CNc1cc(OCc2ccc(Cn3ccccc3=O)cc2)ncn1 [Example 301, 1-(4-(((6-(((1-amino-5,7-dimethylisoquinolin-6-yl)methyl)amino)pyrimidin-4-yl)oxy)methyl)benzyl)pyridin-2(1H)-one] |
| 1 to 10 nM | Cc1cc2c(N)nccc2c(C)c1CNC(=O)Nc1ncncc1OCc1cn2cc(C3CC3)ccc2n1 [Example 507, 1-((1-amino-5,7-dimethylisoquinolin-6-yl)methyl)-3-(5-((6-cyclopropylimidazo[1,2-a]pyridin-2-yl)methoxy)pyrimidin-4-yl)urea] |
| 10 to 100 nM | CC(=O)Nc1nccc2c(C)c(CNc3cc(OCc4ccc(Cn5cccn5)cc4)cnn3)c(C)cc12 [Example I-470, N-(6-(((5-((4-((1H-pyrazol-1-yl)methyl)benzyl)oxy)pyridazin-3-yl)amino)methyl)-5,7-dimethylisoquinolin-1-yl)acetamide] |
| 1 to 10 nM | Cc1cc2cc(CNc3cc(NCc4c(C)cc5c(N)nccc5c4C)ncn3)cnc2cc1C [Example 325, N^4-((1-amino-5,7-dimethylisoquinolin-6-yl)methyl)-N^6-((6,7-dimethylquinolin-3-yl)methyl)pyrimidine-4,6-diamine] |
| 10 to 100 nM | Cc1cc2c(N)nccc2c(C)c1CNc1cc(NCc2ccc3ncccc3c2)c(C(N)=O)nn1 [Example 452, 6-(((1-amino-5,7-dimethylisoquinolin-6-yl)methyl)amino)-4-((quinolin-6-ylmethyl)amino)pyridazine-3-carboxamide] |
| 1 to 10 nM | Cc1ccc2nc(C(C(=O)O)n3cc(C(=O)NCc4c(C)cc5c(N)nccc5c4C)cn3)cn2c1 (stereo not shown) [Example 129, 2-(4-(((1-amino-5,7-dimethylisoquinolin-6-yl)methyl)carbamoyl)-1H-pyrazol-1-yl)-2-(6-methylimidazo[1,2-a]pyridin-2-yl)acetic acid] |
| 100 to 1000 nM | Cc1cc2c(N)nccc2c(C)c1CNC(=O)c1cnn(Cc2sc3ccccc3c2Cl)c1 [Example 80, N-((1-amino-5,7-dimethylisoquinolin-6-yl)methyl)-1-((3-chlorobenzo[b]thiophen-2-yl)methyl)-1H-pyrazole-4-carboxamide] |
| 10 to 100 nM | Cc1cc2c(N)nccc2c(C)c1CNc1cc2nn(Cc3cn4cc(C5CC5)ccc4n3)cc2cn1 [Example 269, 6-(((2-((6-cyclopropylimidazo[1,2-a]pyridin-2-yl)methyl)-2H-pyrazolo[4,3-c]pyridin-6-yl)amino)methyl)-5,7-dimethylisoquinolin-1-amine] |
| > 1000 nM | Cc1cc2c(Nc3cc4c(cn3)nnn4Cc3cn4cc(C5CC5)ccc4n3)nccc2c(C)c1CN [Example 502, 6-((l2-azanyl)methyl)-N-(1-((6-cyclopropylinmidazo[1,2-a]pyridin-2-yl)methyl)-1H-[1,2,3]triazolo[4,5-c]pyridin-6-yl)-5,7-dimethylisoquinolin-1-amine] |
| 10 to 100 nM | CCOC(=O)Nc1nccc2c(C)c(CNc3cc(NCc4ccc(Cn5ccccc5=O)cc4)ncn3)c(C)cc12 [Example 249, ethyl (5,7-dimethyl-6-(((6-((4-((2-oxopyridin-1(2H)-yl)methyl)benzyl)amino)pyrimidin-4-yl)amino)methyl)isoquinolin-1-yl)carbamate] |
| 1 to 10 nM | Cc1cc2c(N)nccc2c(C)c1CNC(=O)c1cnn(Cc2cn3ccccc3n2)c1 [Example 53, N-((1-amino-5,7-dimethylisoquinolin-6-yl)methyl)-1-(imidazo[1,2-a]pyridin-2-ylmethyl)-1H-pyrazole-4-carboxamide] |
| > 1000 nM | Cc1cc2c(N)nccc2c(C)c1CNc1cc2c(Cc3ccc4ccccc4c3)c[nH]c2cn1 [Example 526, 5,7-dimethyl-6-(((3-(naphthalen-2-ylmethyl)-1H-pyrrolo[2,3-c]pyridin-5-yl)amino)methyl)isoquinolin-1-amine] |
| 10 to 100 nM | Cc1cc2c(N)nccc2c(C)c1CNC(=O)c1cnn(Cc2cccc(C#N)c2)c1 [Example 94, N-((1-amino-5,7-dimethylisoquinolin-6-yl)methyl)-1-(3-cyanobenzyl)-1H-pyrazole-4-carboxamide] |
| < 1 nM | Cc1cc2c(N)nccc2c(C)c1CNc1cc(OCc2cnc3ccc(F)cc3c2)cnn1 [Example 415, 6-(((5-((6-fluoroquinolin-3-yl)methoxy)pyridazin-3-yl)amino)methyl)-5,7-dimethylisoquinolin-1-amine] |

Source: US20260374754A1, “N-((ISOQUINOLIN-6-YL)METHYL)-1H-PYRAZOLE-4-CARBOXAMIDE DERIVATIVES AS PLASMA KALLIKREIN INHIBITORS FOR THE TREATMENT OF HEREDITARY ANGIODEMA” (Takeda Pharmaceutical Company Limited, priority 2022, published 2026)
